The values below come from ChEMBL document CHEMBL1130882, “C-alkylated spiro[benzofuran-3(2H),4'-1'-methyl-piperidine-7-ols] as potent opioids: a conformation-activity study” (Bioorg Med Chem Lett, 1998).

One assay concerns the target Mu-type opioid receptor (Cavia porcellus, UniProt P97266). The assay is described as follows: Binding affinity against mu opioid receptor was determined in brain membrane preparations from male Hartley guinea-pigs. Format: cell membranes.
Assay [1] deals with Kappa-type opioid receptor (Cavia porcellus, UniProt P41144). Nature of the assay: Binding affinity against Opioid receptor kappa 1 was determined in brain membrane preparations from male Hartley guinea-pigs. Format: cell membranes.
Kappa-type opioid receptor, sequence (P41144 whole entry): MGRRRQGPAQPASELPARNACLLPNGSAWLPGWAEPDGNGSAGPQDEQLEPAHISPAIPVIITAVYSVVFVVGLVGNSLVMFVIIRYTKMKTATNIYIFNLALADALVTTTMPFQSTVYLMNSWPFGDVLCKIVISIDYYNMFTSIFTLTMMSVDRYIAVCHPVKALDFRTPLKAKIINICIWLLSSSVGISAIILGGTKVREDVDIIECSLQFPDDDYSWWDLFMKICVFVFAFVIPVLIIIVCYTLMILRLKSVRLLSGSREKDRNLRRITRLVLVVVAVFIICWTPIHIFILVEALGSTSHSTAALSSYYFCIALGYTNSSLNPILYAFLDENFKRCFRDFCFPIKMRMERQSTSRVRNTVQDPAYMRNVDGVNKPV

Mu-type opioid receptor, sequence (P97266 whole entry): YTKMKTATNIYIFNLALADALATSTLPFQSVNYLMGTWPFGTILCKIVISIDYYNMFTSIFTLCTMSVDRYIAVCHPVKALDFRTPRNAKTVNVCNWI

For `CC1CN(C)CCC12COc1c(O)cccc12` (racemic; form 1), the Ki (commonly the dissociation constant of the complex between target and ligand, obtained from inhibition or displacement) was 0.054 µM on Mu-type opioid receptor and 0.177 µM in assay [1]. The like results for `CC1CN(C)CCC12COc1c(O)cccc12` (racemic; form 2) were, in that order, 1.02 µM and 0.505 µM. For `CC1Oc2c(O)cccc2C12CCN(C)CC2` (racemic), in that order: 0.124 µM and above 100 µM. As for `CN1CCC2(CC1)COc1c(O)cccc12`, the Ki at Mu-type opioid receptor is 1.65 µM; in assay [1], above 100 µM. The like results for `CCC1Oc2c(O)cccc2C12CCN(C)CC2` (racemic) were, in that order, 0.102 µM and above 100 µM. The molecule `CCOC(=O)C1(c2ccccc2)CCN(C)CC1` [MEPERIDINE] returned an inhibition constant Ki in assay [1] above 100 µM.
